Patent publication US20160305970A1, “CELL LINES AND METHODS FOR MAKING AND USING THEM” (Chromocell Corporation, priority 2008, published 2016)
Blank lines part the entries; values can stand above or below the compound they belong to.

How the values were obtained:
GABAA α5β3γ2s (α5) = target: T1, GABAA α5β3γ2s (α5) (Homo sapiens, UniProt P18507+P28472+P31644); format: cell-based; conditions: CHO cell line α5β3γ2s, membrane potential assay
T1 construct: expressed in transfected cells
Method: Cells were plated 24 hours prior to assay at 10-25,000 cells per well in 384 well plates in growth media (Ham's F-12 media plus FBS and glutamine). […] Incubation was for 1 hour, followed by plate loading onto the high throughput fluorescent plate reader (Hamamastu FDSS). […] The plates were read for 90 seconds.

[1] = target: human GC-C (guanylate cyclase 2C, GUCY2C) (human) (UniProt P25092); experiment: cell-based or functional assay
human GC-C (guanylate cyclase 2C, GUCY2C) (human), sequence (P25092 24-1073): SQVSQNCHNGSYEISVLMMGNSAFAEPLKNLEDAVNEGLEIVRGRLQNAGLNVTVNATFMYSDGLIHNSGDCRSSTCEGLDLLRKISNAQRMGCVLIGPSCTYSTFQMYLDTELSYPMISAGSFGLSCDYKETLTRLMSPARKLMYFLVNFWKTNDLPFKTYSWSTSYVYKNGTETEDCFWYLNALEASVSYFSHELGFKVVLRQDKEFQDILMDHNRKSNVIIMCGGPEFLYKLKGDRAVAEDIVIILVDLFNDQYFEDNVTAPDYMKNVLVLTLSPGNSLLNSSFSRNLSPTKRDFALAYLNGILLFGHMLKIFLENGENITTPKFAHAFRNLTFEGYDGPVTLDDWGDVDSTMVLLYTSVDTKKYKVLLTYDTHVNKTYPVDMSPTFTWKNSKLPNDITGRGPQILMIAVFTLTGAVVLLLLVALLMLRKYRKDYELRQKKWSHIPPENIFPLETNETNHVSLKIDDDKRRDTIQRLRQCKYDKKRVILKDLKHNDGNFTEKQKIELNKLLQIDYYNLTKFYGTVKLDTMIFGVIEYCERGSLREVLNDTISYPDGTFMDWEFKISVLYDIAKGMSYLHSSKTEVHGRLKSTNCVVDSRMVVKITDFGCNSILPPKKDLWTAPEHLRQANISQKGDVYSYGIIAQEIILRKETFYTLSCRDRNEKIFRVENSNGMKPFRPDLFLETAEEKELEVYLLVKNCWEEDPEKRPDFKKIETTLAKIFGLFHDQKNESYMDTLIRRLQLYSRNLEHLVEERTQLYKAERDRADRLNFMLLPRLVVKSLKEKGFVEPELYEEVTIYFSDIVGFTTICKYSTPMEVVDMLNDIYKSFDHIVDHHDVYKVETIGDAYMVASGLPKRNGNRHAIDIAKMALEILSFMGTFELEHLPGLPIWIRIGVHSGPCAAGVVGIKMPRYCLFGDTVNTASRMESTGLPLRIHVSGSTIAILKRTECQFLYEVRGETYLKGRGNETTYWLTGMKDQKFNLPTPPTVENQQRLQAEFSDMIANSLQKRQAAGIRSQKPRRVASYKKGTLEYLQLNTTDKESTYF

human CFTR = experiment: Fluorescence membrane potential assay, stable CFTR-expressing CHO cell line; format: cell-based; conditions: stable CFTR-expressing cell line, 15,000 cells/well, 384-well plate
Method: Populations of cells were tested using functional criteria. Membrane potential dye kits (Molecular Devices, MDS) were used according to manufacturer's instructions. Cells were tested at varying densities in 384-well plates (i.e., 12.5×10^3 to 20×10^3 cells/per well) and responses were analyzed. Time between cell plating and assay read was tested. Dye concentration was also tested. Dose response curves and Z' scores were both calculated as part of the assessment of potential functionality. CHO cell lines stably expressing CFTR were maintained under standard cell culture conditions in Ham's F12 medium supplemented with 10% fetal bovine serum and glutamine. On the day before assay, the cells were harvested from stock plates and plated into black clear-bottom 384 well assay plates. The assay plates were maintained in a 37° C. cell culture incubator under 5% CO2 for 22-24 hours. […] For forskolin dose-response experiments, cells of the produced stable CFTR-expressing cell lines, plated at a density of 15,000 cells/well in a 384-well plate were challenged with increasing concentration of forskolin, a known CFTR agonist. The cellular response as a function of changes in cell fluorescence was monitored over time by a fluorescent plate reader (Hamamatsu FDSS). […]-1742 (2001)), indicating the potency of the clone.

[2] = tested on: GABAA (α1β3γ2s, α2β3γ2s, α3β3γ2s and α5β3γ2s); experiment: In-cell readout assay using halide-sensitive meYFP, GABAA-meYFP-CHO cells; format: cell-based, human; conditions: increasing concentrations of GABA ligand
Method: The response of GABAA (subunit combinations of α1β3γ2s (A1), α2β3γ2s (A2), α3β3γ2s (A3) and α5β3γ2s (A5)) expressing CHO cells of the invention to test compounds was evaluated using the following protocol for an in-cell readout assay.
Cells were plated 24 hours prior to assay at 10-25,000 cells per well in 384 well plates in growth media (Ham's F-12 media plus FBS and glutamine). […] The assay plates were then loaded on the FDSS (Hamamatsu Corporation). […] The plates were read for 90 seconds.

T1 sequence (P31644 32-462): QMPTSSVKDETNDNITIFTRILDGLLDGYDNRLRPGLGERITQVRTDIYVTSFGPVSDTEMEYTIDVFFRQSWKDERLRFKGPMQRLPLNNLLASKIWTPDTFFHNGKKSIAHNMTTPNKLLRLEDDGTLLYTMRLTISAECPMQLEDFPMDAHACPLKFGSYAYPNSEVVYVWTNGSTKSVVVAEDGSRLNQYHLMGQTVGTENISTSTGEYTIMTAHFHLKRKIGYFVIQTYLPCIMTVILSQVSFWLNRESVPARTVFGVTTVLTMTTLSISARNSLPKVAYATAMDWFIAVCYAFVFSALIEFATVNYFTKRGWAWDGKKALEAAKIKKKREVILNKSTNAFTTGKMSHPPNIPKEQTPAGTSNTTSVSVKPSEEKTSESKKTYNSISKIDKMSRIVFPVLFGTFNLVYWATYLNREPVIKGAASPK
T1 sequence (P28472 26-473): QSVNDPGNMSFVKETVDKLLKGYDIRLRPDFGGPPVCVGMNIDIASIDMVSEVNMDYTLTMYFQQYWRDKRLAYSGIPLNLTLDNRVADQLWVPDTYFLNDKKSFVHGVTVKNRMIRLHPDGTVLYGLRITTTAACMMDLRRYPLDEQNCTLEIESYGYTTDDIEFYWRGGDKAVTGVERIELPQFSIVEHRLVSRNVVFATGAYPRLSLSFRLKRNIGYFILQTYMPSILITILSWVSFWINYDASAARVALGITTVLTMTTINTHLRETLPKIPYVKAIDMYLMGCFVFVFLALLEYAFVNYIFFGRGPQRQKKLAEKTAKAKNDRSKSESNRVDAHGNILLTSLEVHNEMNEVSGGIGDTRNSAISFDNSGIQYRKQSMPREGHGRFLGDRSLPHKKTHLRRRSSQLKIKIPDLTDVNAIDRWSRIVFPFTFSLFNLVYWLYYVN
T1 sequence (P18507 40-467 isoform P18507-1 limits assumed): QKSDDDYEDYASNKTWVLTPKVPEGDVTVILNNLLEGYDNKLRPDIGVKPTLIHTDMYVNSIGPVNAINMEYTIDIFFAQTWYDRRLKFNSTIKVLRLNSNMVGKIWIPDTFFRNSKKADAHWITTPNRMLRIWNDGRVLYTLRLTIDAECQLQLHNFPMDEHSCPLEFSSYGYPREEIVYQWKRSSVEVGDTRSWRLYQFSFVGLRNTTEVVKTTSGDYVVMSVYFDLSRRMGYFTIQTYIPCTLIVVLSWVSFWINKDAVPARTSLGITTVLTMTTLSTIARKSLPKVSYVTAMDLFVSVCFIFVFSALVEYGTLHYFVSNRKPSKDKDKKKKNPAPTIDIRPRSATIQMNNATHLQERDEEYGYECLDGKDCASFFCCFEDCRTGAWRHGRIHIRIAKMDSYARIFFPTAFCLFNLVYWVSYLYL

Compound: COc1cc(/C=C(\C#N)C(=O)c2ccc(O)c(O)c2)cc(I)c1O [I-OMe Tyrphostin 538]
EC50 Values α5 (GABAA α5β3γ2s (α5)): α5 Not active

EC50 of the cellular response (absorbance as a function of changes in cGMP levels, Direct Cyclic GMP Enzyme Immunoassay Kit) to increasing guanylin [1]: 1.1 nM | level of cGMP [1]: 6 pmol/mL
Compound: guanylin (peptide)

EC50 (human CFTR): 256 nM
Compound: C=C[C@@]1(C)CC(=O)[C@]2(O)[C@@]3(C)[C@@H](O)CCC(C)(C)[C@@H]3[C@H](O)[C@H](OC(C)=O)[C@@]2(C)O1 [forskolin]

Compound: NCCCC(=O)O [GABA]
meYFP signal response [2]: increasing quench of meYFP signal
